Kd and no binding detected data for 2 molecules are collected here from publication PMC4672894, “Bromodomain Proteins Contribute to Maintenance of Bloodstream Form Stage Identity in the African Trypanosome” (PLoS Biology, 2015).

Common to all, as to assay: isothermal titration calorimetry
What all share (assay type): binding

Assay [1] concerns the target T1, Bdf2 bromodomain (Bdf2^9-123) (Trypanosoma brucei, UniProt Q38AM1).
T1 construct: gene Tb10.6k15.3240; bromodomain, residues 9-123, amplified from genomic DNA, pET28a with N-terminal PreScission-cleavable His6 tag, E. coli; crystal model residues 9-114
T1 sequence (Q38AM1 9-123): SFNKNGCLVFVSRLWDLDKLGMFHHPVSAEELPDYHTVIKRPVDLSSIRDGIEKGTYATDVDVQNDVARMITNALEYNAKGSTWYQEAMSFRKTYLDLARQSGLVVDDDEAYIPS
An excerpt:
isothermal titration calorimetry on Bdf2 bromodomain (Bdf2^9-123) | confirmed direct and specific binding of I-BET151 to their AcK recognition sites

For assay [2], the target named is T2, Bdf3 bromodomain (Bdf3^32-150) (Trypanosoma brucei, UniProt Q383S2).
T2 construct: gene Tb11.01.1830; bromodomain, residues 32-150, amplified from genomic DNA, pET28a with N-terminal PreScission-cleavable His6 tag, E. coli; strain-construction section prints a conflicting locus Tb427.01.1830
T2 sequence (Q383S2 32-150): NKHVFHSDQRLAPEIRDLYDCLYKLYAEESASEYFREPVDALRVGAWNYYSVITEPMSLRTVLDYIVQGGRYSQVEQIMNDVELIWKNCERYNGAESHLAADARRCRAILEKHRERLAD
An excerpt:
isothermal titration calorimetry on Bdf3 bromodomain (Bdf3^32-150) | confirmed direct and specific binding of I-BET151 to their AcK recognition sites

For assay [3], the target named is T1, Bdf2 bromodomain (Bdf2^9-123). The settings on record: 15°C, pH 7.5, 20 mM Hepes, 150 mM NaCl, 0.5 mM TCEP, 1% DMSO.
Assay [4] concerns the target T2, Bdf3 bromodomain (Bdf3^32-150). The settings on record: 15°C, pH 7.5, 20 mM Hepes, 150 mM NaCl, 0.5 mM TCEP, 1% DMSO.

With `COc1cc2c(cc1-c1c(C)noc1C)ncc1[nH]c(=O)n([C@H](C)c3ccccn3)c12` [I-BET151], the results for the Kd in assay [1] and in assay [2] were 225 ± 5 µM and 175 ± 10 µM, respectively.
Take `Cc1sc2c(c1C)C(c1ccc(Cl)cc1)=N[C@@H](CC(=O)OC(C)(C)C)c1nnc(C)n1-2` [JQ1]: the no binding detected entry in assay [3] is reported as “we could not detect binding of another well characterized bromodomain inhibitor, JQ1”; in assay [4], “we could not detect binding of another well characterized bromodomain inhibitor, JQ1”.
